Assay results taken from patent publication US9179678B2, “Substituted [1,2,4]triazoles and substituted tetrazoles as herbicides” (SYNGENTA LIMITED, priority 2012, dated 2015).

Legend:
Type in all cases: in vivo
Setaria faberi (SETFA) [1] = experiment: Post-emergence glasshouse herbicide test; details: POST Application, 1000 g/h, after 13 days
Procedure: Seeds of a variety of test species are sown in standard soil in pots (Alopecurus myosuroides (ALOMY), Setaria faberi (SETFA), Echinochloa crus-galli (ECHCG), Solanum nigrum (SOLNI), Amaranthus retoflexus (AMARE), Ipomoea hederacea (IPOHE)). After cultivation for one day (pre-emergence) or after 8 days cultivation (post-emergence) under controlled conditions in a glasshouse (at 24/16° C., day/night; 14 hours light; 65% humidity), the plants are sprayed with an aqueous spray solution derived from the formulation of the technical active ingredient in acetone/water (50:50) solution containing 0.5% Tween 20 (polyoxyethelyene sorbitan monolaurate, CAS RN 9005-64-5). […] The test plants are then grown in a glasshouse under controlled conditions in a glasshouse (at 24/16° C., day/night; 14 hours light; 65% humidity) and watered twice daily. After 13 days for pre and post-emergence, the test is evaluated for the percentage damage caused to the plant. The biological activities are shown in the following table on a five point scale (5=80-100%; 4=60-79%; 3=40-59%; 2=20-39%; 1=0-19%).

Solanum nigrum (SOLNI) [2] = experiment: Pre-emergence glasshouse herbicide test; details: PRE Application, 1000 g/h, after 13 days
Procedure: (§1) Seeds of a variety of test species are sown in standard soil in pots (Alopecurus myosuroides (ALOMY), Setaria faberi (SETFA), Echinochloa crus-galli (ECHCG), Solanum nigrum (SOLNI), Amaranthus retoflexus (AMARE), Ipomoea hederacea (IPOHE)). After cultivation for one day (pre-emergence) or after 8 days cultivation (post-emergence) under controlled conditions in a glasshouse (at 24/16° C., day/night; 14 hours light; 65% humidity), the plants are sprayed with an aqueous spray solution derived from the formulation of the technical active ingredient in acetone/water (50:50) solution containing 0.5% Tween 20 (polyoxyethelyene sorbitan monolaurate, CAS RN 9005-64-5). Compounds ae applied at 1000 g/h. The test plants are then grown in a glasshouse under controlled conditions in a glasshouse (at 24/16° C., day/night; 14 hours light; 65% humidity) and watered twice daily. After 13 days for pre and post-emergence, the test is evaluated for the percentage damage caused to the plant. The biological activities are shown in the following table on a five point scale (5=80-100%; 4=60-79%; 3=40-59%; 2=20-39%; 1=0-19%).

[3] = test system: Echinochloa crus-galli (ECHCG); experiment: Pre-emergence glasshouse herbicide test; details: PRE Application, 1000 g/h, after 13 days
Procedure: as §1

[4] = test system: Alopecurus myosuroides (ALOMY); experiment: Pre-emergence glasshouse herbicide test; details: PRE Application, 1000 g/h, after 13 days
Procedure: as §1

[5] = test system: Ipomoea hederacea (IPOHE); experiment: Pre-emergence glasshouse herbicide test; details: PRE Application, 1000 g/h, after 13 days
Procedure: as §1

Setaria faberi (SETFA) [6] = experiment: Pre-emergence glasshouse herbicide test; details: PRE Application, 1000 g/h, after 13 days
Procedure: as §1

[7] = test system: Amaranthus retoflexus (AMARE); experiment: Pre-emergence glasshouse herbicide test; details: PRE Application, 1000 g/h, after 13 days
Procedure: as §1

Solanum nigrum (SOLNI) [8] = experiment: Post-emergence glasshouse herbicide test; details: POST Application, 1000 g/h, after 13 days
Procedure: as §1

[9] = test system: Echinochloa crus-galli (ECHCG); experiment: Post-emergence glasshouse herbicide test; details: POST Application, 1000 g/h, after 13 days
Procedure: as §1

[10] = test system: Alopecurus myosuroides (ALOMY); experiment: Post-emergence glasshouse herbicide test; details: POST Application, 1000 g/h, after 13 days
Procedure: as §1

[11] = test system: Ipomoea hederacea (IPOHE); experiment: Post-emergence glasshouse herbicide test; details: POST Application, 1000 g/h, after 13 days
Procedure: as §1

[12] = test system: Amaranthus retoflexus (AMARE); experiment: Post-emergence glasshouse herbicide test; details: POST Application, 1000 g/h, after 13 days
Procedure: as §1

SMILES	percentage damage caused to the plant, SETFA (Setaria faberi (SETFA) [1])	percentage damage caused to the plant, SOLNI (Solanum nigrum (SOLNI) [2])	percentage damage caused to the plant, ECHCG [3]	percentage damage caused to the plant, ALOMY [4]	percentage damage caused to the plant, IPOHE [5]	percentage damage caused to the plant, SETFA (Setaria faberi (SETFA) [6])	percentage damage caused to the plant, AMARE [7]	percentage damage caused to the plant, SOLNI (Solanum nigrum (SOLNI) [8])	percentage damage caused to the plant, ECHCG [9]	percentage damage caused to the plant, ALOMY [10]	percentage damage caused to the plant, IPOHE [11]	percentage damage caused to the plant, AMARE [12]
Cn1nnnc1NC(=O)c1nc2ccccc2n(-c2ccsc2)c1=O [Compound 5.005]	5 (5=80-100%)	5 (5=80-100%)	5 (5=80-100%)	2 (2=20-39%)	5 (5=80-100%)	3 (3=40-59%)	5 (5=80-100%)	5 (5=80-100%)	5 (5=80-100%)	2 (2=20-39%)	5 (5=80-100%)	5 (5=80-100%)
Cn1nnnc1NC(=O)c1nc2ccc(C(F)(F)F)cc2n(-c2ccccc2)c1=O [Compound 5.006]	4 (4=60-79%)	5 (5=80-100%)	4 (4=60-79%)	3 (3=40-59%)	4 (4=60-79%)	3 (3=40-59%)	5 (5=80-100%)	5 (5=80-100%)	4 (4=60-79%)	3 (3=40-59%)	5 (5=80-100%)	5 (5=80-100%)
Cn1nnnc1NC(=O)c1nc2cc(Cl)ccc2n(-c2ccccc2)c1=O [Compound 5.007]	5 (5=80-100%)	5 (5=80-100%)	2 (2=20-39%)	2 (2=20-39%)	5 (5=80-100%)	5 (5=80-100%)	5 (5=80-100%)	5 (5=80-100%)	2 (2=20-39%)	2 (2=20-39%)	5 (5=80-100%)	5 (5=80-100%)
Cn1nnnc1NC(=O)c1nc2ccc(Cl)cc2n(-c2ccccc2)c1=O [Compound 5.008]	5 (5=80-100%)	5 (5=80-100%)	2 (2=20-39%)	2 (2=20-39%)	5 (5=80-100%)	5 (5=80-100%)	5 (5=80-100%)	5 (5=80-100%)	2 (2=20-39%)	2 (2=20-39%)	5 (5=80-100%)	5 (5=80-100%)
COc1ccc(-n2c(=O)c(C(=O)Nc3nnnn3C)nc3ccccc32)cc1 [Compound 5.009]	2 (2=20-39%)	5 (5=80-100%)	5 (5=80-100%)	2 (2=20-39%)	5 (5=80-100%)	1 (1=0-19%)	5 (5=80-100%)	5 (5=80-100%)	4 (4=60-79%)	1 (1=0-19%)	3 (3=40-59%)	5 (5=80-100%)
Cc1cccc(-n2c(=O)c(C(=O)Nc3nnnn3C)nc3ccccc32)c1 [Compound 5.011]	5 (5=80-100%)	5 (5=80-100%)	4 (4=60-79%)	2 (2=20-39%)	5 (5=80-100%)	4 (4=60-79%)	5 (5=80-100%)	5 (5=80-100%)	4 (4=60-79%)	2 (2=20-39%)	5 (5=80-100%)	5 (5=80-100%)
Cc1ccc(-n2c(=O)c(C(=O)Nc3nnnn3C)nc3ccccc32)cc1 [Compound 5.012]	4 (4=60-79%)	5 (5=80-100%)	5 (5=80-100%)	2 (2=20-39%)	5 (5=80-100%)	3 (3=40-59%)	5 (5=80-100%)	5 (5=80-100%)	5 (5=80-100%)	2 (2=20-39%)	5 (5=80-100%)	5 (5=80-100%)
CCOc1cccc(-n2c(=O)c(C(=O)Nc3nnnn3C)nc3ccccc32)c1 [Compound 5.014]	5 (5=80-100%)	5 (5=80-100%)	2 (2=20-39%)	2 (2=20-39%)	4 (4=60-79%)	5 (5=80-100%)	5 (5=80-100%)	5 (5=80-100%)	4 (4=60-79%)	3 (3=40-59%)	5 (5=80-100%)	5 (5=80-100%)
Cn1nnnc1NC(=O)c1nc2ccccc2n(-c2ccc(Cl)cc2)c1=O [Compound 5.015]	5 (5=80-100%)	5 (5=80-100%)	5 (5=80-100%)	2 (2=20-39%)	5 (5=80-100%)	5 (5=80-100%)	5 (5=80-100%)	5 (5=80-100%)	5 (5=80-100%)	4 (4=60-79%)	5 (5=80-100%)	5 (5=80-100%)
Cn1nnnc1NC(=O)c1nc2ccccc2n(-c2cccc(Cl)c2)c1=O [Compound 5.016]	5 (5=80-100%)	5 (5=80-100%)	5 (5=80-100%)	4 (4=60-79%)	5 (5=80-100%)	5 (5=80-100%)	5 (5=80-100%)	5 (5=80-100%)	5 (5=80-100%)	5 (5=80-100%)	5 (5=80-100%)	5 (5=80-100%)
Cn1nnnc1NC(=O)c1nc2ccccc2n(-c2cc(Cl)cc(Cl)c2)c1=O [Compound 5.017]	5 (5=80-100%)	5 (5=80-100%)	1 (1=0-19%)	4 (4=60-79%)	4 (4=60-79%)	5 (5=80-100%)	5 (5=80-100%)	5 (5=80-100%)	2 (2=20-39%)	5 (5=80-100%)	4 (4=60-79%)	5 (5=80-100%)
